Here are results for 18 compounds from PubChem BioAssay (NCI).

Molecules are shown by their SMILES.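 Protocol summary: plate cells (96-well), add compound at 5 concentrations, incubate 48 h, interpolate endpoints linearly. TGI: concentration producing complete growth inhibition.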 Where a SMILES comes first, the peptide text is derived from it. The star is where a group is joined. Boc = CC(C)(C)OC(=O)*

For orientation: TGI means the concentration at which net growth stops. Lower therefore signals more potent growth arrest.

The first assay relates to MALME-3M melanoma. In words: DTP human tumour cell line panel, 48 h.
Take `Cc1ccc(/C=C/C(=O)C(C)(C)CN2CCCCC2)cc1`: the TGI worked out at 29.3 µM.
Compound `CC(=O)CN(Cc1cc(C)c2c(c1)c1ccccc1n2Cc1ccccc1)S(=O)(=O)c1ccc(C)cc1` showed a TGI greater than 100 µM.
In turn, `O=C1OC(Cc2ccccc2)(N2CCCC2=O)C1c1ccccc1` (stereo unspecified) returned a TGI greater than 100 µM.
With `CC1(C)OC(=O)C(C#N)=C1/C=C/c1coc2ccc(Cl)cc2c1=O`, the TGI came out at 66.1 µM.

In the next assay the test system is NCI-H23 lung. Put plainly: DTP human tumour cell line panel, 48 h.
`COc1ccc2c(c1)C(=O)C1CC(=O)CCC21` (stereo unspecified) gave a TGI greater than 100 µM.
`COc1cccc(NC(=O)CSc2nnc(-c3ccc(NC(C)=O)cc3)o2)c1` had a TGI greater than 100 µM.
Same read-out and setting: then `Clc1ccc(Nc2nc3ccccc3nc2-c2cccs2)cc1Cl`, with greater than 100 µM; and `CCn1c2ccccc2c2ccc3c(c21)C(=O)C=CC3=O`, with 51.1 µM.
Compound `COC(=O)c1onc(-c2c(OC)cc(OC)cc2OC)c1C(=O)OC` showed a TGI greater than 100 µM.
Same read-out and setting: the result for `CCCP1(=O)C=C(C)C(=C(Cl)Cl)C(C)=C1` (stereo unspecified) reads 85.5 µM; that for `CCCCCCCOc1ccc(/C=C\c2cc[n+](CCCCCCCC[n+]3ccc(/C=C\c4ccc(OCCCCCCC)cc4)cc3)cc2)cc1`, greater than 100 µM; that for `CC(C)(C)OC(=O)NC(Cc1ccc(O)cc1)C(=O)N1CCCC1C(=O)O` (stereo not drawn) (Boc-Tyr-Pro-OH; configuration not given here), greater than 100 µM.
Still for that read-out and setting: then `O=C(O)c1ccc(C2COc3ccc(Cl)cc3C2)cc1` (stereo unspecified), with greater than 100 µM; and `CC(=O)NC(CCCNC(=O)N(CCCl)N=O)C(=O)NCc1ccccc1` (stereo unspecified), with greater than 100 µM.
Same read-out and setting: then `c1ccc2c(c1)C1CCCCCC21N1CCOCC1` (stereo unspecified), with greater than 100 µM.
`COc1cccc(OC)c1C(=O)OCc1ccccc1` had a TGI greater than 100 µM.
`O=C(CSc1nnc(Cc2ccccc2)o1)Nc1ccccc1` came in with a TGI greater than 100 µM.
The compound `Cc1ccc(/C=C/C(=O)C(C)(C)CN2CCCCC2)cc1` gave a total growth inhibition concentration (TGI) of 30.5 µM.
Still for that read-out and setting: the result for `CC(=O)CN(Cc1cc(C)c2c(c1)c1ccccc1n2Cc1ccccc1)S(=O)(=O)c1ccc(C)cc1` reads greater than 100 µM; that for `O=C1OC(Cc2ccccc2)(N2CCCC2=O)C1c1ccccc1` (stereo unspecified), greater than 100 µM; that for `CC1(C)OC(=O)C(C#N)=C1/C=C/c1coc2ccc(Cl)cc2c1=O`, 52 µM.

A further assay deals with RPMI-8226 leukemia. Put plainly: DTP human tumour cell line panel, 48 h.
The compound `COc1ccc2c(c1)C(=O)C1CC(=O)CCC21` (stereo unspecified) had a concentration for total growth inhibition (TGI) greater than 100 µM.
Still for that read-out and setting: then `COc1cccc(NC(=O)CSc2nnc(-c3ccc(NC(C)=O)cc3)o2)c1`, with greater than 100 µM.
Turning to `Clc1ccc(Nc2nc3ccccc3nc2-c2cccs2)cc1Cl`, the TGI is greater than 100 µM.
Still for that read-out and setting: the result for `CCn1c2ccccc2c2ccc3c(c21)C(=O)C=CC3=O` reads greater than 100 µM; that for `O=c1nc(NC2CCCCO2)ccn1CCO` (stereo unspecified), greater than 100 µM; that for `COC(=O)c1onc(-c2c(OC)cc(OC)cc2OC)c1C(=O)OC`, greater than 100 µM.
Consider `CCCCCCCOc1ccc(/C=C\c2cc[n+](CCCCCCCC[n+]3ccc(/C=C\c4ccc(OCCCCCCC)cc4)cc3)cc2)cc1`, for which the TGI was greater than 100 µM.
As to `CC(C)(C)OC(=O)NC(Cc1ccc(O)cc1)C(=O)N1CCCC1C(=O)O` (stereo not drawn) (Boc-Tyr-Pro-OH; configuration not given here), the TGI is greater than 100 µM.
Same read-out and setting: the result for `O=C(O)c1ccc(C2COc3ccc(Cl)cc3C2)cc1` (stereo unspecified) reads greater than 100 µM; that for `CC(=O)NC(CCCNC(=O)N(CCCl)N=O)C(=O)NCc1ccccc1` (stereo unspecified), greater than 100 µM; that for `COc1cccc(OC)c1C(=O)OCc1ccccc1`, greater than 100 µM.
Still for that read-out and setting: then `O=C(CSc1nnc(Cc2ccccc2)o1)Nc1ccccc1`, with greater than 100 µM.
Same read-out and setting: the result for `Cc1ccc(/C=C/C(=O)C(C)(C)CN2CCCCC2)cc1` reads 14.7 µM; that for `CC(=O)CN(Cc1cc(C)c2c(c1)c1ccccc1n2Cc1ccccc1)S(=O)(=O)c1ccc(C)cc1`, greater than 100 µM.
Regarding `O=C1OC(Cc2ccccc2)(N2CCCC2=O)C1c1ccccc1` (stereo unspecified), the total growth inhibition concentration (TGI) was greater than 100 µM.
On the same count and under the same terms, then `CC1(C)OC(=O)C(C#N)=C1/C=C/c1coc2ccc(Cl)cc2c1=O`, with greater than 100 µM.

The next assay has as its system SK-MEL-2 melanoma. In words: DTP human tumour cell line panel, 48 h.
In turn, `COc1ccc2c(c1)C(=O)C1CC(=O)CCC21` (stereo unspecified) showed a TGI greater than 100 µM.
For the compound `COc1cccc(NC(=O)CSc2nnc(-c3ccc(NC(C)=O)cc3)o2)c1`, the TGI is greater than 100 µM.
The same measure, in the same setting: then `Clc1ccc(Nc2nc3ccccc3nc2-c2cccs2)cc1Cl`, with greater than 100 µM; and `CCn1c2ccccc2c2ccc3c(c21)C(=O)C=CC3=O`, with 44 µM; and `O=c1nc(NC2CCCCO2)ccn1CCO` (stereo unspecified), with greater than 100 µM.
The compound `COC(=O)c1onc(-c2c(OC)cc(OC)cc2OC)c1C(=O)OC` returned a TGI greater than 100 µM.
Same read-out and setting: the result for `CCCP1(=O)C=C(C)C(=C(Cl)Cl)C(C)=C1` (stereo unspecified) reads 41 µM; that for `CCCCCCCOc1ccc(/C=C\c2cc[n+](CCCCCCCC[n+]3ccc(/C=C\c4ccc(OCCCCCCC)cc4)cc3)cc2)cc1`, 74.3 µM; that for `CC(C)(C)OC(=O)NC(Cc1ccc(O)cc1)C(=O)N1CCCC1C(=O)O` (stereo not drawn) (Boc-Tyr-Pro-OH; configuration not given here), greater than 100 µM.
`O=C(O)c1ccc(C2COc3ccc(Cl)cc3C2)cc1` (stereo unspecified) returned a total growth inhibition concentration (TGI) greater than 100 µM.
Compound `CC(=O)NC(CCCNC(=O)N(CCCl)N=O)C(=O)NCc1ccccc1` (stereo unspecified) returned a total growth inhibition concentration (TGI) greater than 100 µM.
Same read-out and setting: then `c1ccc2c(c1)C1CCCCCC21N1CCOCC1` (stereo unspecified), with greater than 100 µM; and `COc1cccc(OC)c1C(=O)OCc1ccccc1`, with greater than 100 µM; and `O=C(CSc1nnc(Cc2ccccc2)o1)Nc1ccccc1`, with greater than 100 µM.
